Laboratory results taken from patent US7728038B2, “Methods for chelation therapy” (priority 2004, dated 2010).
Marks after values point to notes of the source that are not given here.

Tests used:
[1] = test system: heavy metal overload animals; conditions: in vivo; cited from earlier work
iron overload rats = assay: Iron excretion in feces of iron overload rats treated by GL22 (GFAA); type: in vivo, rat; conditions: 30 μmol GL22 in low iron diet each day for 14 days
Protocol: 12 Male Sprague-Dawley rats from Simonsen Laboratories (Gilroy, Calif.) at about 80 days of age were given an intravenous injection of 241-Am-citrate in a total volume of 0.2 mL. For chelator treatment, the GL22 was dissolved in saline and the pH was adjusted to 7.5 with NaOH. Fourteen days after administration of 241-Am-citrate, a chelator food ration was started at 50 μmol/rat/day for 90 days orally, while the same food ration without chelator was given to controls. 50 μmol of chelator was added to the daily food ration (25 g). The total body retention of 241-Am was measured using a whole body-counter and after necropsy the skeletal tissues were counted for 241-Am content. The experimental protocol was described in an earlier publication. […] The same results have also been found for 239-Pu. Moreover, the excretion of iron from iron overloaded male rats that were treated by chelator was tested. […] Then, a low iron diet (Teklab diet #80396) was given to the rats for 2 weeks as the baseline iron excretion reached plateau levels, which was determined by GFAA measurement of iron in feces. […] The ashed feces were dissolved in 4 mL of 3 N HCl and quantitatively transferred to a volumetric flask. […] The concentration of iron was determined by GFAA spectrophotometry (Perkin Elmer). […]

ovariectomized (Ovx) rat [2] = assay: EPR free iron (BC) and LLOFR (NC) of humeral bone, OVX rats treated with GL22; type: in vivo; conditions: GL22 30 μmol/kg orally three times a week, 60 days post-surgery
Protocol: (§1) In another experiment, four groups of 3 or 4 rats (Sprague-Dawley, Charley River) each were used. The baseline group consisted of 3 normal rats, which were sacrificed at six months of age. The humeral bones were collected for EPR free iron and LLOFR measurements and the whole body bone mineral density (BMD) was assessed by Dual x-ray absorptiometry (Hologic QDR1000 Plus) before necropsy. The other three groups were sham ovariectomized (one group) or ovariectomized (two groups) at the same age. The operation (a dorsal approach of bilateral ovariectomy) was under aseptic conditions with Ketamine-Xylazine anesthesia. One group of OVX animals was treated by chelation therapy with 30 μmol/kg body weight of GL22 in saline solution (pH 7.5). The GL22 was orally administered by intubation with a blunt-ended stainless steel needle three times a week. The other two groups received the saline solution without chelator by the same manner. All groups were sacrificed at 60 days post-surgery to collect humeral bones for EPR free iron and LLOFR measurements. Before the termination, whole body BMD was measured.

[3] = 241-Am retention in whole body and skeletal tissue of rats after GL22 treatment; type: in vivo; conditions: GL22 50 μmol/rat/day in food for 90 days
Protocol: 12 Male Sprague-Dawley rats from Simonsen Laboratories (Gilroy, Calif.) at about 80 days of age were given an intravenous injection of 241-Am-citrate in a total volume of 0.2 mL. For chelator treatment, the GL22 was dissolved in saline and the pH was adjusted to 7.5 with NaOH. Fourteen days after administration of 241-Am-citrate, a chelator food ration was started at 50 μmol/rat/day for 90 days orally, while the same food ration without chelator was given to controls. 50 μmol of chelator was added to the daily food ration (25 g). The total body retention of 241-Am was measured using a whole body-counter and after necropsy the skeletal tissues were counted for 241-Am content. The experimental protocol was described in an earlier publication. […] The same results have also been found for 239-Pu. Moreover, the excretion of iron from iron overloaded male rats that were treated by chelator was tested. The same rats as above at the age of 180 days were given 10 mg of iron as iron-dextran (Sigma, St. Louis, Mo.) subcutaneously every 3 days for 6 weeks to induce iron overloading. Then, a low iron diet (Teklab diet #80396) was given to the rats for 2 weeks as the baseline iron excretion reached plateau levels, which was determined by GFAA measurement of iron in feces. The chelator treated rats were given 20 g of low iron diet with 30 μmol of GL22 and control rats were given just 20 g of low iron diet each day for 14 days. Feces were collected every day for determination of iron excretion. The samples of feces were placed in glazed porcelain crucibles, dried at 100° C. overnight and ashed in a muffle furnace at 550° C. for 18 h. The ashed feces were dissolved in 4 mL of 3 N HCl and quantitatively transferred to a volumetric flask. The crucibles were then rinsed twice with 5 ml of 0.36 N HCl. The concentration of iron was determined by GFAA spectrophotometry (Perkin Elmer). After 14 days of chelation treatment by oral administration there were significant increases in the amounts of iron found in the feces when compared with controls (Table 7).

ovariectomized (Ovx) rat [4] = assay: Whole body BMD by dual x-ray absorptiometry, OVX rats treated with GL22; type: in vivo
Protocol: as §1

ovariectomized (Ovx) rat [5] = assay: pQCT densitometry of lumbar vertebra BMD in chelator-treated Ovx rats; type: in vivo
Protocol: (§2) Animal and treatment: Three-month-old female Sprague-Dawley rats (Charles River Laboratory) were obtained and housed with a 12 h light-dark cycle at constant room temperature (24° C.) and humidity. The rats were fed standard rat chow (#8640 Harland Teklad, Madison, Wis.) and water ad libitum. When aged 6 month, the rats were divided into four groups. One group was sacrificed as baseline controls at the beginning of the experiment. The remaining groups were sham operated (one group) or bilaterally ovariectomized (two groups) via a dorsal approach. Chelation treatment started from the second day after surgery and was given three times a week for 9 weeks. The chelator (1-N-Docosyltriethylenetetraminepentaacetic acid, GL22) was dissolved in saline (pH 7.5) and was administrated by oral gavage (100 μmole/kg), while control groups including the sham and Ovx operated animals received vehicle only in the same manner.
(§3) Tissue preparation and analyses: Humeral bone was fixed in 70% ethanol for measurement of tissue iron by EPR. Lumbar vertebrae were first fixed in 10% phosphate buffered formalin for 24 hours, then dehydrated in ascending concentrations of ethanol and embedded in methyl methacrylate. The blocks were trimmed for peripheral computed tomography (pQCT), micro-computed tomography (μ-CT) and later prepared for histomorphometric studies.
pQCT densitometry: The L3 vertebra bodies were examined by pQCT densitometry (Norland Stratec XCT 960A, Birkenfeld, Germany) to determine bone mineral density (BMD) for the part from the middle point to the caudal end, excluding the primary spongiosa. A scout scan of the vertebra was performed, and on the scout view, a reference line was manually placed such that the cross-sectional slice passed through at a distance of 1, 2, 3 and 4 mm from caudal end of lumbar vertebra body. The voxel size was 196 μm. Contour mode 2, Peel mode 20, Cortical mode 2 and threshold 570 for cortical bone was chosen for the analysis. The mean BMD for all of the measured slices was then calculated.

ovariectomized (Ovx) rat [6] = assay: Micro-CT morphometry of lumbar vertebra cancellous bone in chelator-treated Ovx rats; type: in vivo
Protocol: as §2, §3
μ-CT measurement: Lumbar vertebra were scanned in all three dimensions with a high-resolution μ-CT (10 μm) (Scanco μCT-40, Scanco Medical, Bassersdorf, Switzerland). The complete third vertebral bodies were scanned with 600 slices, each containing 2048×2048 pixels. The trabecular and cortical part of the bodies were separated with semi-automatically drawn contours. The resulting grey-sclae images were segmented using a low-pass filter to remove noice and a fixed threshold to extract the mineralized bone phase. From the binary images, structural indices were assessed with three-dimensional techniques without model-assumptions of the appearance of trabecular bone and were calculated by measuring three-dimensional distances directly in the travecular network and taking the mean over all voxels. The region of interest was travecular bone in the lumbar vertebral body, excluding the prmary songiosa area, 0.5 mm from the growth plate.

ovariectomized (Ovx) rat [7] = assay: Free iron contents in humeral cortical bone of Ovx rats by EPR after oral chelation treatment; type: in vivo; conditions: chelator 100 μmole/kg oral gavage three times a week for 9 weeks, FIG. 1
Protocol: as §2, with “manner. […]” for “manner.”
Iron measurement: Total iron contents of femoral cortical bones of aged women were assessed using ICP-OES performed by Galbraith Laboratories, Inc. (Knoxville, Tenn.). […] Each sample of about 100 mg was mixed with acid solution, microwave digested and measured. […]

ovariectomized (Ovx) rat [8] = assay: EPR free iron (BC) and LLOFR (NC) of humeral bone, OVX rats treated with estradiol; type: in vivo; conditions: 17b-estradiol 10 μg/kg IP three times a week, 60 days post-surgery
Protocol: EPR-osseous tissue sample preparation and measurement: Samples of human femoral cortical bone preserved in 70% alcohol were initially crushed into large pieces (<1 mm) using a mortar and pestle. The granules were defatted with 10 changes of acetone and dried at 60° C. The samples then were further crushed and sieved to obtain a 250-600 micrometer fraction. The EPR measurement of approximately 100 mg of sample were made at 24° C. with values for g-factors of 2.00503±0.00019 (NC) and 2.00541±0.00085 (BC) and with widths of 0.916±0.0465 mT (NC) and 2.5 mT (BC) following a modification of known protocols.^74-75 A Bruker 300E spectrometer at 9.7 GHz was used for date collection.
Humeral bones from four groups of 3 or 4 rats (Sprague-Dawley, Charley River) each were evaluated. The baseline group consisting of 3 normal rats were sacrificed at six months of age using Ketamine-Xylazine anesthesia. The other three groups (4 rats each) were sham ovariectomized (SHAM) (one group) or ovariectomized (OVX) (two groups) at the same age. Bilateral ovariectomy was performed using a dorsal approach under aseptic conditions with Ketamine-Xylazine anesthesia.^76 One group of OVX animals was treated by estradiol IP injection with 10 μg/kg body weight of 17b-estradiol in benzyl alcohol/corn oil solution (5:95, vol/vol). The injections were three times a week. […]

horse spleen ferritin = biological target: T1, horse spleen ferritin (Equus caballus, UniProt P02791+Q8MIP0); assay: Removal of iron from ferritin by incubation with chelators; type: biochemical; conditions: Tris buffer 25 mM, pH 7.5, 37° C., chelator 0.47 mM, DFO 0.19 mM, up to 72 h
T1 construct: incubation of horse spleen ferritin with chelators 1a and 1b; from tissue; host or cells: horse spleen
Protocol: These chelators reacted with iron (III) forming purple complexes (UV: λmax=456 nm (ε4.6×10^3) for 1a; λmax=459 nm (λ4.45×10^3) for 1b) which have the chelator iron stoichiometry of 3:1. […] The chelators can also react with Al and Zn forming white powder complexes, and with Cu forming a green colored complex. These complexes were very soluble in water. […] The removal of iron from ferritin was determined by incubation of horse spleen ferritin with chelators 1a and 1b in Tris buffer (25 mM, pH 7.5, 37° C.) at a concentration of 0.47 mM, using DFO (0.19 mM) as a reference chelator similar to that described by Kontoghiorghes. The concentrations of the iron complex were measured spectrophotometrically from λmax values. The kinetics of iron release were investigated for a of period up to 72 h.

[9] = n-octanol/Tri-HCl buffer system; cited from earlier work
[10] = Ovx rats treated with chelator, lumbar vertebra, pQCT
[11] = chelator-treated Ovx rats, μ-CT

T1 sequence (P02791 2-175 limits assumed): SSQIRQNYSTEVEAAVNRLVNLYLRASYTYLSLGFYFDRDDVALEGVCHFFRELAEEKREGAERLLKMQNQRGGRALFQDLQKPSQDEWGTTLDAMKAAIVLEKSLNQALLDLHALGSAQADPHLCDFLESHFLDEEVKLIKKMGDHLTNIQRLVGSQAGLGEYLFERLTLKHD
T1 sequence (Q8MIP0 whole entry): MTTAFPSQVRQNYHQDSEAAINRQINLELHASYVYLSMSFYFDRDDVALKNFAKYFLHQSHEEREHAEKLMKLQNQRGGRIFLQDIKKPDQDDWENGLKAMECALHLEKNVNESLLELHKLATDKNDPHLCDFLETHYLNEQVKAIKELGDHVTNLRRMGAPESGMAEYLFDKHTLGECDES

CCCCCCCCCCCCCCCCCCCCCCN(CCN(CCN(CCN(CC(=O)O)CC(=O)O)CC(=O)O)CC(=O)O)CC(=O)O [GL22, 1-N-Docosyltriethylenetetraminepentaacetic acid]
toxicity in treated heavy metal overload animals [1]: without any indications of toxicity | Excreted Fe from feces (iron overload rats): 1084.62 ± 88.54 | BC (free iron) in bone (ovariectomized (Ovx) rat [2]): 202.7 ± 32.9^b a.u./mg | NC (LLOFR) in bone (ovariectomized (Ovx) rat [2]): 1083 ± 127^b a.u./mg | 241-Am retention, Femur [3]: 4.06 ± 0.08% | 241-Am retention, Humerus [3]: 3.97 ± 0.09% | 241-Am retention, Vertebral body [3]: 4.05 ± 0.23% | 241-Am retention, Whole body ([3]; started 14 days after 241-Am-citrate iv): 50.8 ± 0.7% | whole body BMD (ovariectomized (Ovx) rat [4]; OVX rats, GL22 30 μmol/kg orally three times a week, 60 days post-surgery): 0.188 ± 0.004^b g/cm2 | removal of Ca from bone (ovariectomized (Ovx) rat [4]; judged from BMD of chelator-treated OVX rats versus SHAM rats (Table 5)): not found to remove Ca from bone | Trabecula BMD of spine bone versus Ovx group (ovariectomized (Ovx) rat [5]; FIG. 2A, ANOVA p<0.01, 6 rats per group): significantly higher | Total BMD of spine bone versus Ovx group (ovariectomized (Ovx) rat [5]; FIG. 2B, ANOVA p<0.05, 6 rats per group): significantly higher | trabecular BMD compared with sham control (ovariectomized (Ovx) rat [5]; Ovx rats treated with chelator): 91.8% | trabecular BMD of the spine, higher than Ovx rats (ovariectomized (Ovx) rat [5]; [10]): 20% | trabecular BMD of the spine, less than sham control (ovariectomized (Ovx) rat [5]; [10]): 8.2% | BV/TV compared with sham control (ovariectomized (Ovx) rat [6]; Ovx rats treated with chelator): 85.2% | Tr. Sp. increase compared with sham control (ovariectomized (Ovx) rat [6]; Ovx rats treated with chelator): 8% | bone volume to tissue volume (BV/TV), higher than untreated Ovx rats (ovariectomized (Ovx) rat [6]; [11]): 9.1% | trabecular separation (Tr. Sp.), less than OVX controls (ovariectomized (Ovx) rat [6]; [11]): 10.2% | iron content in bone, percent of that of Ovx rats without chelation treatment (ovariectomized (Ovx) rat [7]): 59.8% | iron content in bone, percent of that of sham controls (ovariectomized (Ovx) rat [7]): 73.0%

C[C@]12CC[C@@H]3c4ccc(O)cc4CC[C@H]3[C@@H]1CC[C@@H]2O [Estrogen, 17b-estradiol]
BC (free iron) of EPR signal of humeral bone (ovariectomized (Ovx) rat [8]): 214.3 ± 11.1^b a.u./mg | NC (LLOFR) of EPR signal of humeral bone (ovariectomized (Ovx) rat [8]): 1357.5 ± 101.4^b a.u./mg

CCc1c(O)c(=O)ccn1COCCO [1b]
removing iron from ferritin, compared with DFO (horse spleen ferritin): more effective than DFO

Cc1c(O)c(=O)ccn1COCCO [1a]
removing iron from ferritin, compared with DFO (horse spleen ferritin): more effective than DFO

Cc1c(O)c(=O)ccn1C [L1, 1,2-dimethyl-3-hydroxyl-4-pyridinone]
distribution coefficient (DC) [9]: 0.24
